Reference: publication PMC6363759, “Decreased complexity of glucose dynamics in diabetes in rhesus monkeys” (Scientific Reports, 2019)

Tests used:
[1] = in the clinic, cited from earlier work
From the text: The sixth diabetic animal, 161281, was not treated because it was already receiving insulin.

diabetic rhesus monkeys [2] = test: Glucose lowering by liraglutide detected by continuous glucose monitoring (CGM); assay type: in vivo; details: for Mean glucose, With liraglutide: CGM over treatment period (16 to 28 days)
Procedure: Vehicle used was 1 mM Sodium Phosphate (pH = 8) and 5% Mannitol. […] Blood samples were obtained at 0.08, 0.25, 0.50, 1.00, 2.00, 4.00, 6.00, 7.00, and 24.00 hours post-dose. […] Compound was given daily subcutaneously at 15 µg/kg in the morning each day (~8–9 am). Lira dosing started on Day 39 of the CGM period and continued for 28 days.
Surgery procedure: Rhesus monkeys underwent surgery for placement of the DSI HD-XG glucose sensor into the right carotid artery. Animals were initially sedated with 10 mg/kg ketamine IM, intubated and anesthesia was maintained through isoflurane inhalation. All monkeys received 0.01 mg/kg Buprenorphine IM, 4.4 mg/kg carprofen SC and 20 mg/kg ceftiofur SC preoperatively. A 3–4 centimeter skin incision was made on the right, mid-lateral neck over the carotid artery where the pulse was palpated. A 1–2 centimeter segment of the right carotid artery was isolated and a tight ligature was placed distally towards the head around the exposed section of vessel. A second ligature was pre-placed, but not tightened, proximally towards the chest around the exposed section of vessel to prevent excessive bleeding when the vessel was cut. A small incision was made in the artery between these two ligatures. The sensor was inserted into the lumen of the vessel and advanced towards the heart approximately 8–9 centimeters. The pre-placed ligature was tightened to prevent bleeding around the sensor. A third ligature was secured around the sensor between the previously placed ligatures and further secured around the vessel to prevent the sensor from migrating. The telemetry body was secured to the underlying musculature in the right lateral neck near the sensor entry into the artery. Monkeys received 2 mg/kg bupivacaine locally at the skin incision. All incisions were then closed routinely. The animals were removed from the isoflurane anesthesia to allow for recovery and were monitored until they were sternal and stable. Animals received 4.4 mg/kg carprofen PO or IM once the day following surgery and were observed daily for the next 10 days to assure a normal recovery. A reference electrode and telemetry body was placed in the subcutaneous tissue near the catheter entry point as recommended by DSI.
The implanted sensor transmits its signal to a repeater located on the same animal on the collar. That repeater then immediately retransmits the HD-XG data on a different frequency to a repeater receiver up to 8 meters away. […] Glucose sensor values were reported once per second.

diabetic rhesus monkeys [3] = test: Multiscale entropy (MSE) analysis of glucose dynamics before and during liraglutide treatment; assay type: in vivo; details: 15 µg/kg sc daily
Procedure: Details about the definition and calculation of MSE are given in the Supplementary Materials and Methods. MSE-AUC10s-30m is the area under an MSE curve between scale factors of 10 seconds and 30 minutes, and was used as a single-number summary of the curve.
Five diabetic animals were treated with liraglutide for four weeks, beginning during the sixth week of monitoring. […] For each animal the period of the same length immediately preceding the start of liraglutide was used as the comparator (‘pre-liraglutide’) period.
Supplementary Materials and Methods
Multiscale entropy analysis, introduced by Costa et al1, is built upon a quantity called sample entropy2, which we describe first. The sample entropy of a regularly spaced time series of length N is defined using two parameters: a subsequence length, m, and a similarity threshold, r. Consider any two subsequences of length m of the time series. […]
start at the same position.) The subsequences are said to match if the i-th element of one subsequence differs from the i-th element of the other by no more than r, for all ݅=1,…,݉. Let B denote the number of matching pairs of subsequences when we consider all possible pairs of length- m subsequences from the first […] observations of the series. Next, repeat the process of counting matches, but use subsequences of length m+1instead of m, and consider all possible such subsequences taken from the full series of N observations. Let A denote the number of matching pairs among them.
Then the sample entropy is the negative natural logarithm of the ratio A/B. See Richman and Moorman 2 for details and explicit formulas. […]
Multiscale entropy calculates this sample entropy after applying various amounts of averaging to the original time series. […] The result is a new time series of averages, for which sample entropy is calculated. […]
Application of MSE analysis requires choosing values for the parameters m and r, and the set of scale factors to use. […] The smallest possible scale fact or is set by the time resolution of the series being analyzed, in our case 1 second. […]

Compound: CCCCCCCCCCCCCCCC(=O)N[C@@H](CCC(=O)NCCCC[C@H](NC(=O)[C@H](C)NC(=O)[C@H](C)NC(=O)[C@H](CCC(N)=O)NC(=O)CNC(=O)[C@H](CCC(=O)O)NC(=O)[C@H](CC(C)C)NC(=O)[C@H](Cc1ccc(O)cc1)NC(=O)[C@H](CO)NC(=O)[C@H](CO)NC(=O)[C@@H](NC(=O)[C@H](CC(=O)O)NC(=O)[C@H](CO)NC(=O)[C@@H](NC(=O)[C@H](Cc1ccccc1)NC(=O)[C@@H](NC(=O)CNC(=O)[C@H](CCC(=O)O)NC(=O)[C@H](C)NC(=O)[C@@H](N)Cc1cnc[nH]1)[C@@H](C)O)[C@@H](C)O)C(C)C)C(=O)N[C@@H](CCC(=O)O)C(=O)N[C@@H](Cc1ccccc1)C(=O)N[C@H](C(=O)N[C@@H](C)C(=O)N[C@@H](Cc1c[nH]c2ccccc12)C(=O)N[C@@H](CC(C)C)C(=O)N[C@H](C(=O)N[C@@H](CCCNC(=N)N)C(=O)NCC(=O)N[C@@H](CCCNC(=N)N)C(=O)NCC(=O)O)C(C)C)[C@@H](C)CC)C(=O)O [liraglutide]
- time of maximum concentrations post dosing ([1]; subcutaneous administration): 8 to 12 h
- mean peak (Cmax) exposure ([1]; subcutaneous single dose of 0.6 mg): 0.035 µg/mL
- afternoon peak in glucose (diabetic rhesus monkeys [2]; all five treated diabetic rhesus, mean glucose by time of day, before and during treatment): reduced
- Mean glucose, With liraglutide (diabetic rhesus monkeys [2]; diabetic rhesus animal 161282, 15 µg/kg sc daily): 208.2 mg/dL
- Mean glucose, With liraglutide (diabetic rhesus monkeys [2]; diabetic rhesus animal 161283, 15 µg/kg sc daily): 109.6 mg/dL
- Mean glucose, With liraglutide (diabetic rhesus monkeys [2]; diabetic rhesus animal 161284, 15 µg/kg sc daily): 183.1 mg/dL
- Mean glucose, With liraglutide (diabetic rhesus monkeys [2]; diabetic rhesus animal 161286, 15 µg/kg sc daily): 236.6 mg/dL
- Mean glucose, With liraglutide (diabetic rhesus monkeys [2]; diabetic rhesus animal 161288, 15 µg/kg sc daily): 140.9 mg/dL
- coefficient of variation of glucose (standard deviation as a proportion of the mean), treatment vs pre-treatment (diabetic rhesus monkeys [2]; five diabetic rhesus, 15 µg/kg sc daily): no consistent change
- decline of mean glucose (diabetic rhesus monkeys [2]; range over all five treated diabetic rhesus, 15 µg/kg sc daily, treatment vs pre-treatment period): 5–42%
- MSE curve of glucose, treatment vs pre-treatment period (diabetic rhesus monkeys [3]; animals 161286 and 161288): higher
- complexity of glucose dynamics in diabetic animals (diabetic rhesus monkeys [3]; five diabetic rhesus, 2–4 weeks of treatment): did not consistently change complexity
- MSE of glucose, treatment vs pre-treatment period (diabetic rhesus monkeys [3]; three of five treated diabetic animals, 16 to 28 days): essentially no difference
